Experiments:
HT-29 cells [1] = experiment: Proliferation assay of HT-29 cells with caseinate hydrolysates and fractions (neutral red, OD 540 nm); format: cell-based, human
Experimental: Culture of Human Intestinal Epithelial Cells (IECs) and Proliferation Assay
• Human colonic adenocarcinoma cell line HT29 (ATCC: HTB-38) from the American Type Culture Collection (ATCC, Manassas, Va.). • DMEM, high glucose (4.5 g/l), with stable glutamine (BioConcept, AMIMED, Allschwil, Switzerland)
Undifferentiated cells (passages 45-78) were maintained in glucose-containing DMEM supplemented with 10% FCS at 37° C. in a 5% CO2/air incubator. Culture medium was changed every two days until the cell monolayers reached 50% confluence. For stimulation assays, HT-29 cells were plated at 1.2*10^4 cells/well in 96-well flat-bottom plates. After incubation for 4 days, the amount of cells present in the wells before incubation with the samples was assessed adding neutral red solution in 4 wells and incubating the plate for 45 min. The HT-29 cells were then washed twice with serum-free media (inclusive the wells with neutral red solution). The wells colored with neutral red remained from now on free of any media.
HT-29 cells were then incubated 24 hours respectively in the presence of 80 μg (hydrolysed) sodium caseinate samples in 200 μl DMEM, in 200 μl serum-free medium (blank), in 200 μl medium with serum (positive control) or in 0.9% saline solution (negative control). […] The dye was finally extracted with 100 μl of an extraction solution and the optical density measured at 540 nm. The optical density measured correlates with the number of cells present in the wells.
The proliferation was calculated by the difference in absorbance between the cells having been incubated 24 hours with sodium caseinate samples, with serum-free medium, with medium containing serum or with 0.9% saline solution and the cells before incubation.
The difference in absorbance ΔA540 from the blank (cells incubated with serum-free medium) was normalized. The results were then expressed as percentage with respect to the blank. • Culture medium with serum: DMEM was supplemented with 10% decomplemented FCS and 1% Penicillin-Streptomycin. […]

HT-29 cells [2] = experiment: Lactate dehydrogenase cytotoxicity test; format: cell-based, human; conditions: Table 4; HT-29, LDH released, 24 hours incubation
Text: Lactate Dehydrogenase Cytotoxicity Test
Cell viability was rigorously measured according the manufacturer's recommendations (Roche Diagnostics). The test is based on the measurement of lactate dehydrogenase (LDH) activity released from the cytosol of damaged cells in the supernatant.
Most current assays for measuring cytotoxicity are based on alterations of plasma membrane permeability and the consequent release of cytoplasmic enzymes or the uptake of dyes, normally excluded by viable cells. We here chose to measure the lactate dehydrogenase (LDH) activity released from damaged cells.

## sodium caseinate
HT-29 cells [1]; HT-29 cells
  antiproliferative activity (in words): no activity
HT-29 cells [1]; Table 2, HT-29, 24 hours incubation, 80 μg sample in 200 μl DMEM
  % prolif (percentage of OD at 540 nm with respect to the control (−serum)): 93 +/− 12%
HT-29 cells [1]; Table 3, HT-29, active fraction with or without heat / enzyme treatment (alcalase, proteinase A)
  % prolif (percentage of OD at 540 nm with respect to the control (−serum)): 93 +/− 7%
HT-29 cells [2]
  cytotoxic potential, percentage of OD at 490 nm with respect to the control (lysate); row head % prolif: 9 +/− 3%
